What was measured:
Format in all cases: in vivo
Matricaria inodora [1] = assay: Herbicidal pre-emergence action (Method B) against MATIN; conditions: Tripleurospermum inodorum, 504 h, scored visually after about 3 weeks vs untreated controls
From the text: (§1) Method B: Herbicidal Pre-Emergence Action Seeds of mono- and dicotyledonous weed plants are placed in plastic pots in sandy loam soil (doubly sown with one species each of mono- or dicotyledonous weed plants per pot) and covered with soil. The compounds of the invention, formulated in the form of wettable powders (WP) or as emulsion concentrates (EC), are then applied onto the surface of the covering soil as aqueous suspension or emulsion with addition of 0.5% additive at a water application rate equivalent to 600 liters per hectare. After the treatment, the pots are placed in a greenhouse and kept under good growth conditions for the trial plants. After about 3 weeks, the effect of the preparations is scored visually in comparison with untreated controls as percentages. For example, 100% action=the plants have died, 0% action=like control plants.

Poa annua [2] = assay: Herbicidal pre-emergence action (Method B) against POAAN; conditions: 504 h, scored visually after about 3 weeks vs untreated controls
From the text: as §1

Echinochloa crus-galli [3] = assay: Herbicidal post-emergence action (Method A) against ECHCG; conditions: rated visually after about 3 weeks vs untreated controls; for pest or weed control at 1280 g/ha: Echinochloa crus-galli, post-emergence, 504 h
Description: (§2) Method A: Herbicidal Post-Emergence Action Seeds of mono- and dicotyledonous weed plants are placed in plastic pots in sandy loam soil (twin sowing with one species each of mono- or dicotyledonous weed plants per pot), covered with soil and cultivated in a greenhouse under controlled growth conditions. 2 to 3 weeks after sowing, the test plants are treated at the one-leaf stage. The compounds of the invention, formulated in the form of wettable powders (WP) or as emulsion concentrates (EC), are applied to the green parts of the plants as aqueous suspension or emulsion with addition of 0.5% additive at a water application rate equivalent to 600 liters per hectare. After the test plants have been kept in the greenhouse under optimum growth conditions for about 3 weeks, the activity of the preparations is rated visually in comparison to untreated controls. For example, 100% activity=the plants have died, 0% activity=like control plants.

Lolium rigidum [4] = assay: Herbicidal post-emergence action (Method A) against LOLRI; conditions: rated visually after about 3 weeks vs untreated controls; for pest or weed control at 1280 g/ha: Lolium rigidum, post-emergence, 504 h
Description: as §2

Poa annua [5] = assay: Herbicidal post-emergence action (Method A) against POAAN; conditions: 504 h, rated visually after about 3 weeks vs untreated controls; for pest or weed control at 320 g/ha: read-out: Post-emergence action at 320 g/ha against POANN; for pest or weed control at 1280 g/ha: read-out: Post-emergence action at 1280 g/ha against POANN
Description: as §2

harmful plants = assay: Herbicidal post-emergence action (Method A), summary statement; conditions: summary of tables A1-A11
Description: as §2

Echinochloa crus-galli [6] = assay: Herbicidal pre-emergence action (Method B) against ECHCG; conditions: 504 h, scored visually after about 3 weeks vs untreated controls
From the text: as §1

Lolium rigidum [7] = assay: Herbicidal pre-emergence action (Method B) against LOLRI; conditions: 504 h, scored visually after about 3 weeks vs untreated controls
From the text: as §1

Stellaria media [8] = assay: Herbicidal pre-emergence action (Method B) against STEME; conditions: 504 h; for pest or weed control at 320 g/ha: dosage 320 g/ha; for pest or weed control at 1280 g/ha: dosage 1280 g/ha
From the text: as §1

Stellaria media [9] = assay: Herbicidal post-emergence action (Method A) against STEME; conditions: 504 h, rated visually after about 3 weeks vs untreated controls
Description: as §2

Abutilon theophrast = assay: Herbicidal pre-emergence action (Method B) against ABUTH; conditions: 1280 g/ha, scored visually after about 3 weeks vs untreated controls
From the text: as §1

Matricaria inodora [10] = assay: Herbicidal post-emergence action (Method A) against MATIN; conditions: 1280 g/ha; rated visually after about 3 weeks vs untreated controls
Description: as §2

Setaria viridis = assay: Herbicidal pre-emergence action (Method B) against SETVI; conditions: 1280 g/ha, scored visually after about 3 weeks vs untreated controls
From the text: as §1

Amaranthus retroflexus = assay: Herbicidal post-emergence action (Method A) against AMARE; conditions: rated visually after about 3 weeks vs untreated controls
Description: as §2

| Compound | pest or weed control at 320 g/ha (Matricaria inodora [1]) [%] | pest or weed control at 1280 g/ha (Matricaria inodora [1]) [%] | pest or weed control at 320 g/ha (Poa annua [2]) [%] | pest or weed control at 1280 g/ha (Poa annua [2]) [%] | Post-emergence action at 320 g/ha against ECHCG (Echinochloa crus-galli [3]) [%] | pest or weed control at 1280 g/ha (Echinochloa crus-galli [3]) [%] | Post-emergence action at 320 g/ha against LOLRI (Lolium rigidum [4]) [%] | pest or weed control at 1280 g/ha (Lolium rigidum [4]) [%] | pest or weed control at 320 g/ha (Poa annua [5]) [%] | pest or weed control at 1280 g/ha (Poa annua [5]) [%] | pest or weed control at 320 g/ha (Echinochloa crus-galli [6]) [%] | pest or weed control at 1280 g/ha (Echinochloa crus-galli [6]) [%] | pest or weed control at 320 g/ha (Lolium rigidum [7]) [%] | pest or weed control at 1280 g/ha (Lolium rigidum [7]) [%] | pest or weed control at 320 g/ha (Stellaria media [8]) [%] | pest or weed control at 1280 g/ha (Stellaria media [8]) [%] | pest or weed control at 320 g/ha (Stellaria media [9]) [%] | pest or weed control at 1280 g/ha (Stellaria media [9]) [%] | Post-emergence action at 1280 g/ha against MATIN (Matricaria inodora [10]) [%] | further results |
| --- | --- | --- | --- | --- | --- | --- | --- | --- | --- | --- | --- | --- | --- | --- | --- | --- | --- | --- | --- | --- |
| O=C(NN=C1CCOCC1)c1nc(C2CC2)ncc1-c1ccccc1Cl [Example I-559, 5-(2-chlorophenyl)-2-cyclopropyl-N′-(tetrahydro-4H-pyran-4-ylidene)pyrimidine-4-carbohydrazide] | 100 | 100 | 100 | 100 | 90 | 90 | 90 | 100 | 100 | 100 | 90 | 100 | 100 | 100 | 100 | 100 | 90 | 100 |  | herbicidal efficacy against harmful plants in the case of post-emergence treatment (harmful plants): good herbicidal efficacy |
| CCNC(=O)NNC(=O)c1nc(C2CC2)ncc1-c1ccccc1Cl [Example I-552, 2-{[5-(2-chlorophenyl)-2-cyclopropylpyrimidin-4-yl]carbonyl}-N-ethylhydrazinecarboxamide] | 90 | 100 | 100 | 100 | 90 | 100 | 90 | 90 | 100 | 100 |  | 90 | 90 | 90 | 100 | 100 |  | 100 | 90 | Pre-emergence action against ABUTH (Abutilon theophrast): 90% |
| O=C(NNc1ccccn1)c1nc(C2CC2)ncc1-c1ccccc1Cl [Example I-510, 5-(2-chlorophenyl)-2-cyclopropyl-N′-(pyridin-2-yl)pyrimidine-4-carbohydrazide] | 100 | 100 | 100 | 100 | 90 | 90 | 90 | 90 | 100 | 100 | 100 | 100 | 100 | 100 | 100 | 100 | 100 | 100 | 90 | Pre-emergence action against SETVI (Setaria viridis): 90%; Post-emergence action at 1280 g/ha against AMARE (Amaranthus retroflexus): 100% |
| CCOC(=O)NNC(=O)c1nc(C2CC2)ncc1-c1ccc(F)cc1Cl [Example I-2591, ethyl 2-{[5-(2-chloro-4-fluorophenyl)-2-cyclopropylpyrimidin-4-yl]carbonyl}hydrazinecarboxylate] |  | 90 | 100 | 100 |  | 90 |  |  | 100 | 100 |  | 100 |  | 100 | 100 | 100 |  | 100 |  |  |
